# From ChEMBL document CHEMBL1155967, “Design, synthesis, and examination of neuron protective properties of alkenylated and amidated dehydro-silybin derivatives” (J Med Chem, 2009)
# Calls of active or inactive are those of the source. The calls are words filed in the database; no cut-off is given here.
# Tests used:
# [1] = test system: Radical scavenging activity; assay: Antioxidant activity assessed as DPPH radical scavenging activity at 50 uM after 30 mins by spectrophotometry; format: functional
# [2] = molecular target: T1, Xanthine dehydrogenase/oxidase (Rattus norvegicus, UniProt P22985); assay: Inhibition of rat liver xanthine oxidase at 75 uM after 2 hrs by spectrophotometry; conditions: for inhibition (INH): 75 µM
# [3] = test system: Liver; assay: Inhibition of lipid peroxidation in Sprague-Dawley rat liver homogenate assessed as malondialdehyde formation after 1 hr by TBARS assay; format: functional, tissue-based
# [4] = test system: PC-12; assay: Neuroprotective activity against H2O2-induced injury in rat PC12 cells at 12.5 to 50 uM treated 2 hrs before H2O2 challenge measured after 4 hrs by MTT assay; format: functional, cell-based
# [5] = Antioxidant activity assessed as superoxide anion scavenging activity at 50 uM after 5 mins by spectrophotometry; format: functional
# [6] = Iron chelating activity assessed as inhibition of ferrozine-Fe2+ complex formation after 10 mins by spectrophotometry; format: functional
# [7] = molecular target: T1, Xanthine dehydrogenase/oxidase; assay: Inhibition of rat liver xanthine oxidase after 2 hrs by spectrophotometry
# [8] = Iron chelating activity assessed as inhibition of ferrozine-Fe2+ complex formation at 150 uM after 10 mins by spectrophotometry; format: functional
# [9] = test system: PC-12; assay: Neuroprotective activity against H2O2-induced injury in rat PC12 cells treated 2 hrs before H2O2 challenge measured after 4 hrs by MTT assay; format: functional, cell-based
# [10] = test system: PC-12; assay: Neuroprotective activity against H2O2-induced injury in rat PC12 cells assessed as increase in cell viability at 50 uM treated 2 hrs before H2O2 challenge measured after 4 hrs by MTT assay; format: functional
# [11] = Ratio of 2,3-dehydrosilybin EC50 to compound EC50 for iron chelating activity; format: functional
# [12] = test system: Liver; assay: Ratio of silybin IC50 to compound IC50 for inhibition of lipid peroxidation in Sprague-Dawley rat liver homogenate; format: functional, tissue-based
# [13] = Ratio of quercetin EC50 to compound EC50 for iron chelating activity
# [14] = test system: Liver; assay: Ratio of 2,3-dehydrosilybin IC50 to compound IC50 for inhibition of lipid peroxidation in Sprague-Dawley rat liver homogenate; format: functional, tissue-based
# [15] = test system: Liver; assay: Ratio of quercetin IC50 to compound IC50 for inhibition of lipid peroxidation in Sprague-Dawley rat liver homogenate; format: functional, tissue-based
# [16] = Antioxidant activity assessed as superoxide anion scavenging activity after 5 mins by spectrophotometry; format: functional
# [17] = test system: Radical scavenging activity; assay: Antioxidant activity assessed as DPPH radical scavenging activity after 30 mins by spectrophotometry; format: functional
# T1 sequence (P22985 whole entry): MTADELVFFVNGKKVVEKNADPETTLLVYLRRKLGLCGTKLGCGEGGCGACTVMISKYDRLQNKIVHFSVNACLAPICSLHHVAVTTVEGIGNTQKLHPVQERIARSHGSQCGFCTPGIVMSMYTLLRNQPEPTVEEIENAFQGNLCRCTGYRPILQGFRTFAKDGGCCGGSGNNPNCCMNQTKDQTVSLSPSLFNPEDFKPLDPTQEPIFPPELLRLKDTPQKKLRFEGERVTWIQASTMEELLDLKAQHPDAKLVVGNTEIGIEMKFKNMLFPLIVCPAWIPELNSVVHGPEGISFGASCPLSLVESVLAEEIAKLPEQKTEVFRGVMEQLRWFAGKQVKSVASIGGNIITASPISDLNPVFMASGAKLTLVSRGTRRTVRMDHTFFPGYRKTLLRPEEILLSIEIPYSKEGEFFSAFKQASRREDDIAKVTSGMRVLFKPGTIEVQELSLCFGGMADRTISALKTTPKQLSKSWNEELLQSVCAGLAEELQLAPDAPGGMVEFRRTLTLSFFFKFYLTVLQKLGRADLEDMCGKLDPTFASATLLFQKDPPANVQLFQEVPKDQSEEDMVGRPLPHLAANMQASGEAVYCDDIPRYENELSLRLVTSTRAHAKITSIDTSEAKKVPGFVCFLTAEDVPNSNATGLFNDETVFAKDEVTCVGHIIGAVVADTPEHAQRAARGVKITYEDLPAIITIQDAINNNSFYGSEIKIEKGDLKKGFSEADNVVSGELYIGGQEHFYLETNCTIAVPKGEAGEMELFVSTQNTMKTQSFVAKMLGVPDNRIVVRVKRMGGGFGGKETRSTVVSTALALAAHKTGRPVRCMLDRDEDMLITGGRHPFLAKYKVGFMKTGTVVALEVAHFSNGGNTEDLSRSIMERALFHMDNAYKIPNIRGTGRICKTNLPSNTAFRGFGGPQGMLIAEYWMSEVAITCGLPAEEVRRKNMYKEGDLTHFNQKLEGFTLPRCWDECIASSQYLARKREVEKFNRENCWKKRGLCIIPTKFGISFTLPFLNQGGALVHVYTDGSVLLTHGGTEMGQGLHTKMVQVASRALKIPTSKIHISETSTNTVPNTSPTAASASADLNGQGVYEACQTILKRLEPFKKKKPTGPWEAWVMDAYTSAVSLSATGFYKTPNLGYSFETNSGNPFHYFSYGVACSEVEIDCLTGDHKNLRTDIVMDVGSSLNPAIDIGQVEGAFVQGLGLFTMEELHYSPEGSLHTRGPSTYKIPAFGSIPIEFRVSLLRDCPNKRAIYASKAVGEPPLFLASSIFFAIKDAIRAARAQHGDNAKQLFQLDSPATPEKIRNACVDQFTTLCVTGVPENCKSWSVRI
Structure (SMILES),inhibition (INH) [2],IC50 [3],Activity [5],EC50 [6],inhibition [8],EC50 [9],Activity [10],also measured
O=C1O[C@H]([C@@H](O)CO)C(O)=C1O,–,–,–,–,–,–,–,inhibition [1]: 12.6%
COc1cc(C2Oc3cc(-c4oc5cc(OCC(=O)Nc6ccc(C)cc6)cc(O)c5c(=O)c4O)ccc3OC2CO)ccc1OCC(=O)Nc1ccc(C)cc1 (racemic),Active,74.1 µM,inactive,–,–,–,–,Activity [4]: Active
CCOC(=O)COc1cc(O)c2c(=O)c(O)c(-c3ccc4c(c3)OC(c3ccc(OCC(=O)OCC)c(OC)c3)C(CO)O4)oc2c1 (racemic),–,36.4 µM,inactive,116 µM,53.5%,–,–,inhibition at 75 µM [2]: > 50%; IC50 [7]: 70.8 µM
C=CCOc1cc(O)c2c(=O)c(O)c(-c3ccc4c(c3)OC(c3ccc(OCC=C)c(OC)c3)C(CO)O4)oc2c1 (racemic),–,22.6 µM,inactive,129 µM,72.5%,20.5 µM,40%,–
C=CCOc1cc(O)c2c(=O)c(OCC=C)c(-c3ccc4c(c3)OC(c3ccc(OCC=C)c(OC)c3)C(CO)O4)oc2c1 (racemic),–,54.8 µM,inactive,–,–,–,–,–
COc1cc(C2Oc3cc(-c4oc5cc(OCC(=O)Nc6ccc(Cl)cc6)cc(O)c5c(=O)c4O)ccc3OC2CO)ccc1OCC(=O)Nc1ccc(Cl)cc1 (racemic),Active,153 µM,inactive,–,–,–,–,Activity [4]: Active
COc1cc(C2Oc3cc(-c4oc5cc(OCC=C(C)C)cc(O)c5c(=O)c4O)ccc3OC2CO)ccc1OCC=C(C)C (racemic),–,28.1 µM,inactive,138 µM,–,47.4 µM,40%,inhibition at 75 µM [2]: 18.9%
COc1ccc(NC(=O)COc2cc(O)c3c(=O)c(O)c(-c4ccc5c(c4)OC(c4ccc(OCC(=O)Nc6ccc(OC)cc6)c(OC)c4)C(CO)O5)oc3c2)cc1 (racemic),Active,37 µM,inactive,–,–,–,–,Activity [4]: Active
COc1cc(C2Oc3cc(-c4oc5cc(OCC(=O)Nc6ccc(Cl)cc6Cl)cc(O)c5c(=O)c4O)ccc3OC2CO)ccc1OCC(=O)Nc1ccc(Cl)cc1Cl (racemic),Active,20.7 µM,inactive,–,–,–,–,Activity [4]: Active
COc1cc(C2Oc3cc(-c4oc5cc(OCC(=O)N6CCCC6)cc(O)c5c(=O)c4O)ccc3OC2CO)ccc1OCC(=O)N1CCCC1 (racemic),Active,0.9 µM,inactive,23.2 µM,87%,–,–,Ratio EC50 [11]: 4; Activity [4]: Active; Ratio IC50 [12]: 93; Ratio EC50 [13]: 7; Ratio IC50 [14]: 11; inhibition [1]: 44.2%; Ratio IC50 [15]: 5
CCN(CC)C(=O)COc1cc(O)c2c(=O)c(O)c(-c3ccc4c(c3)OC(c3ccc(OCC(=O)N(CC)CC)c(OC)c3)C(CO)O4)oc2c1 (racemic),Active,5.8 µM,inactive,59.9 µM,63%,–,–,Activity [4]: Active
CCN(CC)C(=O)COc1cc(O)c2c(=O)c(O)c(-c3ccc4c(c3)OC(c3ccc(O)c(OC)c3)C(CO)O4)oc2c1 (racemic),Active,0.7 µM,Active,113 µM,52.5%,–,–,inhibition [1]: 46.4%
C=CCCOc1cc(O)c2c(=O)c(O)c(-c3ccc4c(c3)OC(c3ccc(OCCC=C)c(OC)c3)C(CO)O4)oc2c1 (racemic),–,36.2 µM,inactive,145 µM,–,37.7 µM,40%,–
C=CCCOc1cc(O)c2c(=O)c(OCCC=C)c(-c3ccc4c(c3)OC(c3ccc(OCCC=C)c(OC)c3)C(CO)O4)oc2c1 (racemic),–,67.5 µM,inactive,–,–,79.4 µM,40%,–
COc1ccc(C(=O)OCC2Oc3ccc(-c4oc5cc(O)cc(O)c5c(=O)c4O)cc3OC2c2ccc(O)c(OC)c2)cc1 (racemic),–,104 µM,inactive,–,–,–,–,–
COc1cc(C2Oc3cc(-c4oc5cc(O)cc(O)c5c(=O)c4O)ccc3OC2COC(=O)c2cccc(Cl)c2)ccc1O (racemic),–,16.9 µM,inactive,–,–,46.5 µM,40%,–
COc1cc(C2Oc3cc(-c4oc5cc(OCC=C(C)C)cc(O)c5c(=O)c4O)ccc3OC2CO)ccc1O (racemic),–,23.3 µM,Active,137 µM,51%,32 µM,40%,–
Oc1ncnc2[nH]ncc12 [ALLOPURINOL],–,–,–,–,–,–,–,IC50 [7]: 21.2 µM
COc1cc(C2Oc3cc(-c4oc5cc(O)cc(O)c5c(=O)c4O)ccc3OC2CO)ccc1O (stereo unspecified) [DEHYDROSILYLBIN],–,10.7 µM,–,118 µM,58%,30.2 µM,40%,IC50 [7]: 80.3 µM; inhibition [1]: 42.2%
O=C([O-])CN(CCN(CC(=O)[O-])CC(=O)O)CC(=O)O.[Na+].[Na+] [EDETATE DISODIUM ANHYDROUS],–,–,–,16.4 µM,91.5%,–,–,–
O=c1c(O)c(-c2ccc(O)c(O)c2)oc2cc(O)cc(O)c12 [QUERCETIN],–,4.6 µM,–,188 µM,43.5%,58.4 µM,–,EC50 [16]: 38.6 µM; EC50 [17]: 3.4 µM
COc1cc(C2Oc3cc([C@H]4Oc5cc(O)cc(O)c5C(=O)[C@@H]4O)ccc3OC2CO)ccc1O (stereo partly specified) [SILIBININ],Not Active,84.8 µM,–,–,–,–,–,IC50 [7]: 80.3 µM
